Laboratory results reported in US4487937A, “2-(2-Substitutedamino-4-thiazolyl)-2-(1-methoxy-isopropoxyimino)-acetic acids” (Roussel Uclaf, priority 1977, dated 1984).
Like-named read-outs stand apart in the source and are kept apart here.

Legend:
Assay in all cases: In vitro MIC, dilution of a liquid medium
Format in all cases: cell-based
[1] = system: Klebsiella pneumoniae 2 536 Resistant Gentamicine; conditions: read-out: minimum inhibiting concentration (MIC)
Experimental: (§1) The method used was a dilution of a liquid medium where a series of tubes received the same quantity of a sterile nutritive media and increasing doses of the test compounds were placed therein. Then each tube was seeded with a bacterial strain and was incubated for 24 or 48 hours at 37° C. in an oven. The increasing inhibition was determined by transillumination to determine the minimum inhibiting concentration (MIC in μg/ml) and the results are reported in the following Tables.

[2] = system: Escherichia Coli Exp. TO26 B6; conditions: 37° C., read-out: minimum inhibiting concentration (MIC)
Experimental: as §1

[3] = system: Klebsiella pneumoniae Exp. 52 145; conditions: read-out: minimum inhibiting concentration (MIC)
Experimental: as §1

Enterobacter cloacae 681 = conditions: 37° C., read-out: minimum inhibiting concentration (MIC)
Experimental: as §1

[4] = system: Proteus vulgaris (indol +) A 232; conditions: read-out: minimum inhibiting concentration (MIC)
Experimental: as §1

[5] = system: Salmonella typhimurium 420; conditions: Salmonella enterica, read-out: minimum inhibiting concentration (MIC)
Experimental: as §1

[6] = system: Staphylococcus aureus UC 1 128 Penicillin-resistant; conditions: 37° C., read-out: minimum inhibiting concentration (MIC)
Experimental: as §1

[7] = system: Streptococcus faecalis 99 F 74; conditions: Enterococcus faecalis, 99F74, 37° C., read-out: minimum inhibiting concentration (MIC)
Experimental: as §1

[8] = system: Escherichia Coli Sensitive Tetracycline ATCC 9 637; conditions: read-out: minimum inhibiting concentration (MIC)
Experimental: as §1

[9] = system: Streptococcus faecalis 5 432; conditions: Enterococcus faecalis, 5432, 37° C., read-out: minimum inhibiting concentration (MIC)
Experimental: as §1

[10] = system: Staphylococcus aureus exp. n° 54 146; conditions: 37° C., read-out: minimum inhibiting concentration (MIC)
Experimental: as §1

Providencia Du 48 = conditions: 37° C., read-out: minimum inhibiting concentration (MIC)
Experimental: as §1

[11] = system: Bacillus subtilis ATCC 6 633; conditions: read-out: minimum inhibiting concentration (MIC)
Experimental: as §1

[12] = system: Streptococcus pyogenes A 561; conditions: read-out: minimum inhibiting concentration (MIC)
Experimental: as §1

[13] = system: Serratia Resistant Gentamicine 2 532; conditions: 37° C., read-out: minimum inhibiting concentration (MIC)
Experimental: as §1

[14] = system: Escherichia Coli Resistant Tetracycline ATCC 11 303; conditions: 37° C., read-out: minimum inhibiting concentration (MIC)
Experimental: as §1

[15] = system: Staphylococcus aureus ATCC 6 538 Penicillin-Sensitive; conditions: 37° C., read-out: minimum inhibiting concentration (MIC)
Experimental: as §1

[16] = system: Escherichia Coli Resistant Gentamicine, Tobramycine R 55 123 D; conditions: read-out: minimum inhibiting concentration (MIC)
Experimental: as §1

[17] = system: Proteus mirabilis (indol -) A 235; conditions: read-out: minimum inhibiting concentration (MIC)
Experimental: as §1

SMILES	MIC ([1]; 24 h)	MIC ([1]; 48 h)	MIC ([2]; 24 H)	MIC ([2]; 48 H)	MIC (Enterobacter cloacae 681; 24 H)	MIC (Enterobacter cloacae 681; 48 H)	MIC ([5]; 24 h)	MIC ([6]; UC1, 24 H)	MIC ([6]; UC1, 48 H)	MIC ([7]; 24 H)	MIC ([7]; 48 H)	MIC ([8]; ATCC9, 24 h)	MIC ([8]; ATCC9, 48 h)	MIC ([9]; 24 H)	MIC ([9]; 48 H)	MIC ([10]; 24 H)	MIC ([10]; 48 H)	MIC (Providencia Du 48; DU48, 24 H)	MIC (Providencia Du 48; DU48, 48 H)	MIC ([13]; 24 H)	other results
CC(=O)OCC1=C(C(=O)O)N2C(=O)C(NC(=O)/C(=N\OCC(N)=O)c3csc(N)n3)[C@H]2SC1 (some centres unmarked) [Example 11, sodium 7-[2-(2-amino-4-thiazolyl)-2-(aminocarbonylmethoxyimino)-acetamido]-3-acetoxymethyl-ceph-3-eme-4-carboxylate]	0.5 µg/mL	0.5 µg/mL	0.1 µg/mL	0.1 µg/mL	2 µg/mL	10 µg/mL	0.2 µg/mL	5 µg/mL	5 µg/mL	20 µg/mL	> 40 µg/mL	0.2 µg/mL	0.5 µg/mL	5 µg/mL	20 µg/mL	3 µg/mL	5 µg/mL	5 µg/mL	5 µg/mL	2 µg/mL	MIC ([3]; EXP.52145, 24 H, 37° C.): 0.05 µg/mL; MIC ([3]; EXP.52145, 48 H, 37° C.): 0.05 µg/mL; MIC ([4]; 24 H, 37° C.): 5 µg/mL; MIC ([4]; 48 H, 37° C.): 40 µg/mL; MIC ([5]; 48 h): 0.2 µg/mL; MIC ([11]; ATCC6, 48 H, 37° C.): 1 µg/mL; MIC ([11]; ATCC6, 24 h): 0.5 µg/mL; MIC ([12]; A561, 24 h): 0.1 µg/mL; MIC ([12]; A561, 48 h): 0.1 µg/mL; MIC ([13]; 48 H): 2 µg/mL; MIC ([14]; ATCC11, 24 H): 0.05 µg/mL; MIC ([14]; ATCC11, 48 H): 0.05 µg/mL; MIC ([15]; ATCC6, 24 H): 2 µg/mL; MIC ([15]; ATCC6, 48 H): 3 µg/mL; MIC ([16]; 24 h): 0.1 µg/mL; MIC ([16]; 48 h): 0.1 µg/mL; MIC ([17]; 24 h): 0.1 µg/mL; MIC ([17]; 48 h): 0.1 µg/mL
CC(=O)OCC1=C(C(=O)O)N2C(=O)C(NC(=O)/C(=N\OCC(=O)O)c3csc(N)n3)[C@H]2SC1 (some centres unmarked) [Example 5, disodium 7-[2-(2-amino-4-thiazolyl)-2-hydroxycarbonylmethoxyimino-acetamido]-3-acetoxymethyl-ceph-3-eme-4-carboxylate]	0.1 µg/mL	0.1 µg/mL	0.1 µg/mL	0.1 µg/mL	5 µg/mL	20 µg/mL	0.2 µg/mL	20 µg/mL	20 µg/mL	> 40 µg/mL	> 40 µg/mL	0.2 µg/mL	0.2 µg/mL	20 µg/mL	> 40 µg/mL	20 µg/mL	20 µg/mL	1 µg/mL	2 µg/mL	1 µg/mL	MIC ([3]; EXP.52145, 24 h): 0.1 µg/mL; MIC ([3]; EXP.52145, 48 h): 0.1 µg/mL; MIC ([4]; 24 h): 0.1 µg/mL; MIC ([4]; 48 h): 0.1 µg/mL; MIC ([5]; 48 H, 37° C.): 0.5 µg/mL; MIC ([12]; A561, 24 H, 37° C.): 0.5 µg/mL; MIC ([12]; A561, 48 H, 37° C.): 0.5 µg/mL; MIC ([13]; 48 H): 2 µg/mL; MIC ([14]; ATCC11, 24 H): 0.05 µg/mL; MIC ([14]; ATCC11, 48 H): 0.05 µg/mL; MIC ([15]; ATCC6, 24 H): 10 µg/mL; MIC ([15]; ATCC6, 48 H): 10 µg/mL; MIC ([16]; 24 h): 0.1 µg/mL; MIC ([16]; 48 h): 0.1 µg/mL; MIC ([17]; 24 H, 37° C.): ≤ 0.02 µg/mL; MIC ([17]; 48 H, 37° C.): ≤ 0.02 µg/mL
